Source: patent KR20090133069A, “형질전환 성장인자의 활성을 가지는 펩타이드 및 그의 용도” ((주)케어젠, priority 2009, dated 2009)

What was measured:
[1] = system: NIH-3T3 세포; assay: Peptide stability: storage at 40℃ in 50 mM Tris-HCl (pH 8.0), remaining activity by MTT assay; format: physicochemical; settings: 50 mM Tris-HCl pH 8.0, sampled at days 0-100, peptide 10 ㎍/ml, TGF-β1 1 ㎍/ml, Fig. 3
[2] = system: MITF(microphthalmia-associated transcription factor); assay: RT-PCR of melanogenesis marker MITF in B16F10 cells treated with α-MSH; format: cell-based, mouse; settings: α-MSH plus peptide 10 μg/ml; 4 days; Fig. 8
[3] = system: TRP2; assay: RT-PCR of melanogenesis marker TRP2 in B16F10 cells treated with α-MSH; format: cell-based, mouse; settings: α-MSH plus peptide 10 μg/ml; 4 days; Fig. 8
[4] = system: C57BL/6 마우스의 멜라노사이트; assay: Melanin production in melanocytes induced with α-MSH; format: cell-based, mouse; settings: α-MSH 200 μg/ml; peptide 10 μg/ml; 3 days; Fig. 4
[5] = system: B16F10 세포주; assay: Cytotoxicity test, SRB colorimetry, B16F10 cells; format: cell-based; settings: 10 ng/ml to 100 μg/ml, 72 h, Fig. 11
[6] = system: 타이로시나아제; assay: Tyrosinase activity (L-DOPA, 405 nm) in lysate of B16F10 cells treated with α-MSH; format: cell-based, mouse; settings: peptide 1 and 10 μg/ml, 4 days, versus α-MSH alone, Fig. 6
[7] = system: TRP1(tyrosinase-related protein-1); assay: RT-PCR of melanogenesis marker TRP1 in B16F10 cells treated with α-MSH; format: cell-based, mouse; settings: α-MSH plus peptide 10 μg/ml; 4 days; Fig. 8
[8] = system: NIH3T3 세포; assay: Cytotoxicity test, SRB colorimetry, NIH3T3 cells; format: cell-based; settings: 10 ng/ml to 100 μg/ml, 72 h, Fig. 11
[9] = system: 피브로넥틴; assay: Fibronectin production in NIH3T3 fibroblasts (ELISA); format: cell-based; settings: peptide 1 and 10 μg/ml, 72 h, Fig. 10
[10] = system: 프로콜라겐; assay: Procollagen production in NIH3T3 fibroblasts (ELISA); format: cell-based; settings: peptide 1 and 10 μg/ml, 72 h, Fig. 9
[11] = system: HaCat 세포; assay: Cytotoxicity test, SRB colorimetry, HaCat cells; format: cell-based; settings: 10 ng/ml to 100 μg/ml, 72 h, Fig. 11
[12] = system: B16F10 세포; assay: Microscopic observation of melanosomes in B16F10 cells treated with α-MSH; format: cell-based, mouse; settings: α-MSH 200 μg/ml; peptide 10 μg/ml; 4 days; Fig. 7

Row | Substance | remaining activity over storage time (stability) [1] | MITF expression (RT-PCR) [2] | TRP2 expression (RT-PCR) [3] | melanin production (visual) [4] | cell number / cytotoxicity [5] | decrease of tyrosinase activity [6] [%] | TRP1 expression (RT-PCR) [7] | cell number / cytotoxicity [8] | fibronectin production [9] | procollagen production [10] | cell number / cytotoxicity [11] | melanosomes induced by α-MSH (microscopy) [12]
1 | 재조합 TGF-β1: 대장균으로부터 생산된 재조합 TGF-β1(Sigma), control in the stability test | 활성도가 급격히 감소됨 | – | – | – | – | – | – | – | – | – | – | –
2 | NH2-Gly-Arg-Gly-Asp-Tyr-Leu-Arg-Ser-Ala-Asp-Thr-OH (H-GRGDYLRSADT-OH) [서열2 펩타이드] | 활성도가 오랫동안 지속됨 | 발현을 억제한다 | 발현을 억제한다 | α-MSH를 처리하지 않았을 때와 유사한 멜라닌 생성 | 세포 수의 감소는 전혀 관찰 되지 않았으며 | ≥ 30 | 발현을 억제한다 | 세포 수의 감소는 전혀 관찰 되지 않았으며 | 우수한 피브로넥틴 생성 촉진능 | 우수한 프로콜라겐 생성 촉진능 | 세포 수의 감소는 전혀 관찰 되지 않았으며 | 사라지는
